In ChEMBL document CHEMBL1201862, “PubChem BioAssay data set” (2004):
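Results reflect a 48-hour exposure of cells in 96-well plates to compound at five concentrations. At the GI50, growth is halved.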 Calls of active or inactive are those of the source. No stated cut-off is given here; in the data, active = GI50 up to about 1.1 µM and inactive = higher.

Columns and labels:
Assay in all cases: NCI anticancer screen, dose series, 48 h
ACHN = tested on: ACHN
SW-620 = tested on: SW-620
UACC-62 = tested on: UACC-62
OVCAR-3 = tested on: OVCAR-3
KM12 = tested on: KM12
A498 = tested on: A498
SF-268 = tested on: SF-268
EKVX = tested on: EKVX
HL-60 = tested on: HL-60
SK-OV-3 = tested on: SK-OV-3
Malme-3M = tested on: Malme-3M
RPMI-8226 = tested on: RPMI-8226
NCI-H23 = tested on: NCI-H23
NCI-H522 = tested on: NCI-H522
UO-31 = tested on: UO-31
M14 = tested on: M14
SR = tested on: SR

Row | SMILES | GI50 (ACHN) | GI50 (SW-620) | GI50 (UACC-62) | GI50 (OVCAR-3) | GI50 (KM12) | GI50 (A498) | GI50 (SF-268) | GI50 (EKVX) | GI50 (HL-60) | GI50 (SK-OV-3) | GI50 (Malme-3M) | GI50 (RPMI-8226) | GI50 (NCI-H23) | GI50 (NCI-H522) | GI50 (UO-31) | GI50 (M14) | GI50 (SR)
1 | Cc1c(C(=O)CC(=O)C(=O)Nc2ccc(Cl)cc2)[n+]([O-])c2ccccc2[n+]1[O-] | > 100 µM (inactive) | > 100 µM (inactive) | > 100 µM (inactive) | > 100 µM (inactive) | > 100 µM (inactive) | > 100 µM (inactive) | > 100 µM (inactive) | > 100 µM (inactive) | > 100 µM (inactive) | > 100 µM (inactive) | > 100 µM (inactive) | > 100 µM (inactive) | > 100 µM (inactive) | > 100 µM (inactive) | > 100 µM (inactive) | > 100 µM (inactive) | –
2 | Nc1ccc(C(c2ccccc2)(c2ccccc2)c2ccccc2)cc1 | 52.5 µM (inactive) | > 100 µM (inactive) | 16.5 µM (inactive) | 64.6 µM (inactive) | 55.6 µM (inactive) | > 100 µM (inactive) | 99.3 µM (inactive) | 27.2 µM (inactive) | 26.8 µM (inactive) | 17.6 µM (inactive) | 30.8 µM (inactive) | 39 µM (inactive) | 30.1 µM (inactive) | – | – | 15.8 µM (inactive) | 36.6 µM (inactive)
3 | Cc1cc(C)nc(NS(=O)(=O)c2ccc(NC(=O)c3cccc4c(Nc5ccc(S(=O)(=O)N=C(N)N)cc5)c5ccc(Cl)cc5nc34)cc2)n1 | 80.9 µM (inactive) | – | 34.4 µM (inactive) | 22.2 µM (inactive) | 30.5 µM (inactive) | > 100 µM (inactive) | 41 µM (inactive) | 30.8 µM (inactive) | – | > 100 µM (inactive) | 85.1 µM (inactive) | 23.5 µM (inactive) | 30.8 µM (inactive) | 18.2 µM (inactive) | 41.8 µM (inactive) | > 100 µM (inactive) | 27.1 µM (inactive)
4 | C/C(O)=C1\CC2CN3CCc4c([nH]c5ccccc45)C3CC2CC1=O (stereo not given) | 82.8 µM (inactive) | 38.5 µM (inactive) | – | 27.9 µM (inactive) | > 100 µM (inactive) | > 100 µM (inactive) | 54.6 µM (inactive) | 37 µM (inactive) | 32.7 µM (inactive) | 24.8 µM (inactive) | > 100 µM (inactive) | – | 92 µM (inactive) | 65.6 µM (inactive) | 37.9 µM (inactive) | 49.4 µM (inactive) | 23.4 µM (inactive)
5 | CCCCCCCCCCCCCCCC(=O)NCC(OCC)OCC | > 100 µM (inactive) | > 100 µM (inactive) | > 100 µM (inactive) | > 100 µM (inactive) | > 100 µM (inactive) | – | > 100 µM (inactive) | > 100 µM (inactive) | > 100 µM (inactive) | > 100 µM (inactive) | > 100 µM (inactive) | – | > 100 µM (inactive) | > 100 µM (inactive) | > 100 µM (inactive) | > 100 µM (inactive) | –
6 | COc1ccc2c(c1)CN1CCc3c(cc(OC)c(OC)c3OC)C1C2 (stereo not given) | > 100 µM (inactive) | > 100 µM (inactive) | 74.1 µM (inactive) | > 100 µM (inactive) | – | – | > 100 µM (inactive) | > 100 µM (inactive) | 41.5 µM (inactive) | > 100 µM (inactive) | > 100 µM (inactive) | 38.4 µM (inactive) | > 100 µM (inactive) | > 100 µM (inactive) | > 100 µM (inactive) | 87.1 µM (inactive) | > 100 µM (inactive)
7 | COC(=O)C(C(=O)C(=O)Nc1ccc(N)cc1[N+](=O)[O-])c1nc2ccc(Cl)cc2nc1O (stereo not given) | > 100 µM (inactive) | > 100 µM (inactive) | > 100 µM (inactive) | 74.8 µM (inactive) | > 100 µM (inactive) | > 100 µM (inactive) | 72.9 µM (inactive) | > 100 µM (inactive) | > 100 µM (inactive) | > 100 µM (inactive) | > 100 µM (inactive) | > 100 µM (inactive) | > 100 µM (inactive) | – | 41 µM (inactive) | > 100 µM (inactive) | –
8 | COc1ccc(C2S/C(=C\c3ccccc3)C(=O)N2NC(=O)Cc2ccccc2)cc1 (stereo not given) | > 100 µM (inactive) | > 100 µM (inactive) | > 100 µM (inactive) | – | > 100 µM (inactive) | > 100 µM (inactive) | > 100 µM (inactive) | – | 55.8 µM (inactive) | > 100 µM (inactive) | > 100 µM (inactive) | > 100 µM (inactive) | > 100 µM (inactive) | > 100 µM (inactive) | > 100 µM (inactive) | > 100 µM (inactive) | 68.5 µM (inactive)
9 | Cc1cccc(C(C)(C)C)c1NC(=O)CC1C(=O)Nc2ccccc2S1(=O)=O (stereo not given) | 10.8 µM (inactive) | 10.4 µM (inactive) | 5.06 µM (inactive) | 5.55 µM (inactive) | – | 14.9 µM (inactive) | 11.2 µM (inactive) | 2.87 µM (inactive) | 3.25 µM (inactive) | – | 11.8 µM (inactive) | 3.24 µM (inactive) | 5.38 µM (inactive) | – | 11.2 µM (inactive) | 12.8 µM (inactive) | 3.21 µM (inactive)
10 | CC(C)(C)N/N=C(\C(=O)Nc1nnc(S)[nH]1)C1C(=O)Nc2ccccc2[S+]1[O-] (stereo not given) | > 100 µM (inactive) | > 100 µM (inactive) | > 100 µM (inactive) | > 100 µM (inactive) | > 100 µM (inactive) | > 100 µM (inactive) | > 100 µM (inactive) | > 100 µM (inactive) | > 100 µM (inactive) | > 100 µM (inactive) | > 100 µM (inactive) | > 100 µM (inactive) | > 100 µM (inactive) | > 100 µM (inactive) | > 100 µM (inactive) | > 100 µM (inactive) | > 100 µM (inactive)
11 | C[C@]12CCc3nonc3C1CC[C@@H]1C2CC[C@]2(C)NC(=O)CCC12 (stereo not given in full) | > 100 µM (inactive) | > 100 µM (inactive) | > 100 µM (inactive) | > 100 µM (inactive) | > 100 µM (inactive) | > 100 µM (inactive) | > 100 µM (inactive) | > 100 µM (inactive) | > 100 µM (inactive) | > 100 µM (inactive) | > 100 µM (inactive) | > 100 µM (inactive) | > 100 µM (inactive) | > 100 µM (inactive) | > 100 µM (inactive) | > 100 µM (inactive) | –
12 | O=C(CC1Sc2ccccc2NC1=O)Nc1cc(Cl)ccc1Cl (stereo not given) | > 100 µM (inactive) | > 100 µM (inactive) | > 100 µM (inactive) | > 100 µM (inactive) | – | > 100 µM (inactive) | > 100 µM (inactive) | > 100 µM (inactive) | > 100 µM (inactive) | – | > 100 µM (inactive) | > 100 µM (inactive) | > 100 µM (inactive) | – | > 100 µM (inactive) | > 100 µM (inactive) | 27.3 µM (inactive)
13 | O=C1c2ccccc2-c2ccccc2C(=O)C1(Br)Br | 11.7 µM (inactive) | 3.8 µM (inactive) | 7.36 µM (inactive) | 14.1 µM (inactive) | 17.7 µM (inactive) | 16.6 µM (inactive) | 14.2 µM (inactive) | 14.6 µM (inactive) | 2.15 µM (inactive) | 19.5 µM (inactive) | 3.93 µM (inactive) | 1.84 µM (inactive) | 13.4 µM (inactive) | 2.15 µM (inactive) | 14.4 µM (inactive) | 5.33 µM (inactive) | 2.02 µM (inactive)
14 | O=C(NC(=O)c1cc2cc(Br)cc(Br)c2oc1=O)Oc1ccccc1 | 21.7 µM (inactive) | > 100 µM (inactive) | 50.7 µM (inactive) | > 100 µM (inactive) | 93.8 µM (inactive) | > 100 µM (inactive) | > 100 µM (inactive) | > 100 µM (inactive) | – | 37 µM (inactive) | > 100 µM (inactive) | > 100 µM (inactive) | > 100 µM (inactive) | – | > 100 µM (inactive) | > 100 µM (inactive) | –
15 | O=C(CCc1nnc(S)[nH]1)Nc1cc(Cl)ccc1Cl | > 100 µM (inactive) | > 100 µM (inactive) | > 100 µM (inactive) | > 100 µM (inactive) | > 100 µM (inactive) | > 100 µM (inactive) | > 100 µM (inactive) | > 100 µM (inactive) | > 100 µM (inactive) | > 100 µM (inactive) | > 100 µM (inactive) | > 100 µM (inactive) | > 100 µM (inactive) | > 100 µM (inactive) | > 100 µM (inactive) | > 100 µM (inactive) | > 100 µM (inactive)
16 | CC(=O)OC(C)(C)/C=C/C(=O)[C@](C)(O)[C@H]1[C@H](O)C[C@@]2(C)[C@@H]3CC=C4[C@@H](C[C@H](O)[C@H](O)C4(C)C)[C@]3(C)C(=O)C[C@]12C | 0.498 µM (active) | 0.274 µM (active) | 0.48 µM (active) | 0.314 µM (active) | 0.467 µM (active) | 0.853 µM (active) | 0.397 µM (active) | 0.601 µM (active) | 0.243 µM (active) | 2.79 µM (inactive) | 1.11 µM (active) | 0.107 µM (active) | 0.324 µM (active) | 0.259 µM (active) | 0.839 µM (active) | 0.442 µM (active) | 0.224 µM (active)
17 | COc1ccc(C2C(Cl)C(=O)N2NC(=O)c2ccc(NC(C)=O)cc2)cc1 (stereo not given) | > 100 µM (inactive) | > 100 µM (inactive) | > 100 µM (inactive) | > 100 µM (inactive) | – | > 100 µM (inactive) | > 100 µM (inactive) | > 100 µM (inactive) | > 100 µM (inactive) | > 100 µM (inactive) | > 100 µM (inactive) | – | > 100 µM (inactive) | > 100 µM (inactive) | > 100 µM (inactive) | > 100 µM (inactive) | –
